According to the NIST ThermoML archive (doi:10.1016/j.fluid.2016.06.054):

Experiment: molar heat capacity at constant pressure
Details: Liquid, Flow calorimetry

CC(=O)[O-].CCn1cc[n+](C)c1 [1-ethyl-3-methylimidazolium acetate]
Details | molar heat capacity at constant pressure [J/K/mol]
303.15 K, 100 kPa | 325.25
303.17 K, 4020 kPa | 324.22
303.21 K, 8050 kPa | 322.31
303.25 K, 12080 kPa | 321.03
303.27 K, 16030 kPa | 319.45
313.25 K, 100 kPa | 329.51
313.37 K, 4110 kPa | 327.89
313.42 K, 8060 kPa | 327.03
313.45 K, 12060 kPa | 326.25
313.49 K, 16090 kPa | 325.87
323.16 K, 100 kPa | 332.22
323.22 K, 4040 kPa | 330.61
323.28 K, 8020 kPa | 329.03
323.31 K, 12070 kPa | 327.19
323.34 K, 16130 kPa | 326.51
333.42 K, 100 kPa | 337.87
333.48 K, 4080 kPa | 336.14
333.52 K, 8030 kPa | 334.67
333.59 K, 12010 kPa | 333.16
333.61 K, 16090 kPa | 331.41
343.76 K, 100 kPa | 341.44
343.82 K, 4020 kPa | 340.21
343.85 K, 8030 kPa | 338.53
343.92 K, 12050 kPa | 337.42
343.98 K, 16050 kPa | 336.01
354.29 K, 100 kPa | 345.18
354.33 K, 4060 kPa | 343.89
354.38 K, 8020 kPa | 342.02
354.46 K, 12080 kPa | 340.87
354.52 K, 16090 kPa | 339.03
363.65 K, 100 kPa | 348.36
363.67 K, 4050 kPa | 346.97
363.72 K, 8060 kPa | 345.19
363.78 K, 12070 kPa | 344.06
363.82 K, 16030 kPa | 342.91
374.02 K, 100 kPa | 353.57
374.09 K, 4070 kPa | 352.06
374.11 K, 8010 kPa | 350.13
374.15 K, 12150 kPa | 348.47
374.18 K, 16110 kPa | 347.01
383.41 K, 100 kPa | 357.23
383.46 K, 4080 kPa | 355.56
383.51 K, 8040 kPa | 354.44
383.53 K, 12090 kPa | 353.71
383.55 K, 16050 kPa | 352.62
393.22 K, 100 kPa | 362.22
393.26 K, 4030 kPa | 361.14
393.31 K, 8070 kPa | 359.92
393.33 K, 12140 kPa | 358.14
393.35 K, 16090 kPa | 356.53

CC(=O)[O-].CCCCCCn1cc[n+](C)c1 [3-hexyl-1-methylimidazolium acetate]
Details | molar heat capacity at constant pressure [J/K/mol]
308.3 K, 100 kPa | 446.98
308.6 K, 3940 kPa | 445.51
308.7 K, 7930 kPa | 444.39
308.7 K, 11720 kPa | 442.98
308.8 K, 16020 kPa | 442.23
317.5 K, 100 kPa | 451.85
317.5 K, 4020 kPa | 450.18
317.6 K, 8080 kPa | 449.27
317.8 K, 12320 kPa | 448.43
317.9 K, 16210 kPa | 447.35
327.4 K, 100 kPa | 455.72
327.5 K, 4030 kPa | 454.06
327.7 K, 8190 kPa | 452.63
327.8 K, 12480 kPa | 451.08
327.8 K, 16220 kPa | 450.18
337.2 K, 100 kPa | 460.35
337.3 K, 4120 kPa | 458.97
337.7 K, 8030 kPa | 457.41
337.8 K, 12180 kPa | 456.32
338 K, 16110 kPa | 454.87
345.9 K, 100 kPa | 466.57
346.2 K, 4120 kPa | 465.32
346.3 K, 8170 kPa | 463.82
346.5 K, 12410 kPa | 462.14
346.8 K, 16130 kPa | 460.75
355.3 K, 100 kPa | 472.17
355.6 K, 4120 kPa | 470.85
355.7 K, 8010 kPa | 469.29
355.9 K, 12430 kPa | 468.34
356.1 K, 16130 kPa | 466.81
365 K, 7990 kPa | 476.86
365.1 K, 12180 kPa | 475.05
365.4 K, 16100 kPa | 473.57
365.7 K, 100 kPa | 479.8
365.8 K, 4110 kPa | 478.25
374 K, 100 kPa | 485.51
374.2 K, 4020 kPa | 483.86
374.4 K, 8100 kPa | 482.22
374.7 K, 12380 kPa | 480.71
375 K, 16130 kPa | 479.24
383.9 K, 100 kPa | 491.39
384.1 K, 4100 kPa | 490.53
384.3 K, 7960 kPa | 489.08
384.4 K, 12530 kPa | 487.97
384.5 K, 16010 kPa | 486.3
394.9 K, 100 kPa | 496.24
395.1 K, 4070 kPa | 494.51
395.1 K, 8360 kPa | 493.11
395.2 K, 12770 kPa | 491.91
395.4 K, 16400 kPa | 490.48
